For one test, the target named is T1, gC1qR/p32 (Homo sapiens, UniProt Q07021).
T1 construct: the specific band represents the mature form of a protein known as gC1qR/p32; endogenous in cells; host or cells: MDA-MB-435 cultured cells; MDA-MB-435 tumor xenografts
T1 sequence (Q07021 74-282): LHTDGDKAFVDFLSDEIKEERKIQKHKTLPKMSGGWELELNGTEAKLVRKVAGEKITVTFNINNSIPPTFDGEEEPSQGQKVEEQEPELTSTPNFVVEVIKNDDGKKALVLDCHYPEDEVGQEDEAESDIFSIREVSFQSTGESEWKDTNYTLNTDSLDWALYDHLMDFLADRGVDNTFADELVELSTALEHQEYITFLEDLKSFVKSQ
Description: Pull-down assay with biotinylated peptides from tumor cell extracts. It is filed as binding. As to conditions: extracts of cultured tumor cells (MDA-MB-435); anti-gC1qR/p32 immunoblot. As for the experimental part:
Pull down assays were performed with biotinylated Lyp-1 peptide (SEQ ID NO:1, CGNKRTRGC) from protein extracts derived from MDA-MB-435 cultured cells or MDA-MB-435 tumor xenografts. A tumor homing peptide, CREKA (SEQ ID NO:3), and a peptide CRV which resembles Lyp-1 in its amino acid composition and cyclic structure (SEQ ID NO:4, CRVRTRSGC), were used as negative controls. The Lyp-1 bound proteins were visualized using silver staining and immunoblotting. […] The arrow indicates a specific 33 kD band, which was identified as gC1qR/p32 by mass spectrometry. […] The antibody recognizes a band of 33 kD in the total proteins lysate and in the Lyp-1 pull down. Anti gC1qR/p32 reactive bands are not detected in the pull downs from both control peptides. […] The monoclonal antibody against gC1qR/p32 recognized a 75 kD and a 33 kD band only in the Lyp-1 peptide pull down.
To identify the receptor for the LyP-1 peptide, biotin-labeled LyP-1 and control peptides were incubated with extracts of MDA-MB-435 cells, a cell line that binds and internalizes LyP-1 (Laakkonen et al., 2004). LyP-1 bound a specific band in the 30 kDa range that was not seen in the controls (FIG. 3A, left panel), which were the pentapeptide CREKA (SEQ ID NO: 3) (Simberg et al., 2007) and the nonapeptide CRVRTRSGC (SEQ ID NO: 4), which resembles LyP-1 in its amino acid composition and cyclic structure. […] LyP-1 affinity isolation also yielded gC1qR/p32 from cultured BT549 breast carcinoma cells and from extracts of MDA-MB-435 xenograft tumors.
Streptavidin agarose beads (Sigma-Aldrich) were resuspended in 2 volumes of phosphate buffer saline (PBS) and conjugated to 3 μg/10 μl beads of biotynilated peptides for 2 h on ice. After incubation, beads were washed three times with PBS/50 mM n-octyl-β-D glucopyranoside (Calbiochem; San Diego, Calif.) to remove free peptides. […] Bands that appeared in the LyP-1 but not control peptide pull down were cut out, digested with trypsin, and the resulting peptides were analyzed by matrix-assisted laser desorption ionization-time of flight (MALDI-TOF) mass spectrometry. […]

Test [1] deals with T2, purified gC1qR/p32 protein (Homo sapiens, UniProt Q07021).
T2 sequence (Q07021 74-282): T1 sequence (Q07021 74-282)
The test is described as follows: In vitro phage binding to purified gC1qR/p32 coated on microtiter wells. As to conditions: 5 μg/ml coated protein, 16 h at 37° C., plaque assay. As for the experimental part:
Purified gC1qR/p32 or BSA, as a control, were coated onto microtiter wells (5 μg/ml) and targeted for binding with 10^8 pfu of insertless phage, Lyp-1 phage, or control phage carrying another tumor homing peptide (CREKA, SEQ ID NO:3). After 16 hours of incubation at 37° C., bound phages were eluted and quantified by plaque assay. The results are show in FIG. 2(a). Results are expressed as fold of Lyp-1 and CREKA (SEQ ID NO:3) phages recovered over insertless phage and are representative of five independent experiments.
Microtiter wells (Costar, Corning, N.Y.) were coated overnight at 4° C. with 5 μg/ml of either purified gC1qR/p32 or BSA (Sigma-Aldrich) in 100 μl/well of carbonate buffer (15 mM sodium carbonate, 35 mM sodium bicarbonate). Wells were washed three times with TBS and blocked with Pierce Superblock buffer according to the manufactures instructions. 10^8 pfu of LyP-1 and control phages were added to the wells in 100 μl/well of TBS/0.05% tween-20 and incubated for 16 h at 37° C. After 6 washes in TBS/0.05% tween-20, bound phages were eluted with 200 μl of Tris-HCl 1M pH 7.5/0.5% SDS for 30 min and subsequently quantified by plaque assay. […] Cells were washed 5 times with PBS/1% BSA and bound phages were quantified by plaque assay.

In a further test the test system is MDA-MB-435 tumors. The test is described as follows: Tumor localization of intravenously injected FITC-LyP-1 peptide. As to conditions: circulation 1 hour; p32 immunohistochemical staining. It counts as in vivo, mice. The source says: Tumor localization of gC1qR/p32 and Lyp-1 peptide were visualized. gC1qR/p32, lymphatic or blood vessels, podoplanin and Meca32/CD31 were stained with fluorescently-labeled antibodies in MDA-MB-435 tumor xenografts. Polyclonal anti-gC1qR/p32 antibody recognizes cell clusters that lack blood vessels but contain lymphatics, or cells lining vessel-like structures positive for Podoplanin but not CD31 or Meca32. Fluorescein-conjugated Lyp-1 peptide was i.v. injected into mice bearing MDA-MB-435 tumors and allowed to circulate for 1 hour before removal of the tumor for gC1qR/p32 immunohistochemical analysis. Lyp-1 peptide localizes in gC1qR/p32-positive patches within the tumor.

The next test concerns mitochondrial membranes. As to conditions: 10 μM; cited from earlier work.
Another test deals with MDA-MB-435 cells. The test is described as follows: FACS analysis of FITC-peptide binding to MDA-MB-435 cells. It counts as cell-based. As to conditions: 10 μM, 1 hour at 4° C.; compared with Lyp-1. Here is the method: MDA-MB-435 cells were transiently transfected with gC1qR/p32-specific or control siRNAs. […] The amount of fluorescence in living cells was analyzed by FACS. Cells incubated in the absence of peptide served as FITC negative control. Compared to control siRNA transfected cells, down-regulation of gC1qR/p32 expression (in the presence of gC1qR/p32 siRNA) caused a shift in the peak of Lyp-1 fluorescence but not control peptide fluorescence.
Cultured cells were detached with cell enzyme-free dissociation buffer (Gibco/Invitrogen) and collected in PBS containing 1% BSA (PBSB). Single cells suspensions from tumors were obtained as indicated above. For FACS staining, 2.5×10^5 cells were resuspended in 100 μl of PBSB and incubated with polyclonal anti-full-length gC1qR/p32 or rabbit IgG (20 μg/ml) in PBSB for 30 min at 4° C. The cells were washed in PBSB and stained with goat anti rabbit Alexa 488 (2.5 μg/ml) for 30 min at 4° C. For FACS analysis of bound FITC-peptides, cultured cells were detached as above and incubated with 10 μM of FITC-peptides in 10% FCS/DMEM for 1 hour at 4° C. After washes with PBSB, the cells were resuspended in PBS containing 2 μg/ml of propidium iodide (PI, Molecular Probes/Invitrogen) to distinguish between live and dead cells, and 10,000 cells per sample were analyzed using a BD Biosciences FACSort.
A general note: In flow cytometry, cells or beads pass a laser one at a time.

A further test deals with BT549. As to conditions: cited from earlier work.
Another test has as its system C8161 melanoma cells. As to conditions: cited from earlier work.
The subject of another test is MDA-MB-435. As to conditions: cited from earlier work.
A further test deals with HL-60 leukemia cells. As to conditions: cited from earlier work.
Another test concerns tumors. As to conditions: cited from earlier work.

Bridge positions count the residues as written; N and C are the ends. Ends that are not written are not given here. * marks the point of attachment. FITC = O=C1OC2(c3ccc(O)cc3Oc3cc(O)ccc32)c2ccc(NC(=S)*)cc21

Take “CREKA [tumor homing pentapeptide used as negative control, as peptide and on phage]”: in the test with gC1qR/p32, the “gC1qR/p32 bound/pulled down by biotinylated peptide” value (“gC1qR/p32 bound/pulled down” below) is on record as “not detected”. Besides, in [1], the “phage binding to purified gC1qR/p32 relative to insertless control phage” value is on record as “essentially no interaction”.

As to “FITC-LyP-1: fluorescein-conjugated LyP-1 peptide ({FITC}-CGNKRTRGC; disulfide 1-9 (inferred))”, in the test on MDA-MB-435 tumors, the “tumor localization of intravenously injected peptide” value is given as “accumulated in tumor areas with high expression levels of gC1qR/p32”.

Turning to D(KLAKLAK)2, the mitochondrial swelling entry in the test on mitochondrial membranes is listed as “marked mitochondrial swelling”.

As for CNRRTKAGC (displayed on phage) [LyP-2], the “phage binding to purified gC1qR/p32 relative to insertless control phage” value in test [1] is listed as “did not significantly bind”.

“CRVRTRSGC (disulfide 1-9 (inferred)) [control nonapeptide resembling Lyp-1 in amino acid composition and cyclic structure]”: the “gC1qR/p32 bound/pulled down” value with gC1qR/p32 is listed as “not detected”.

For the substance “ARALPSQRSR [control peptide with same overall charge as LyP-1]”, in the test on MDA-MB-435 cells, the “binding of FITC conjugated peptide to cells” value was “less binding ability”.

As to “CGNKRTRGC (disulfide 1-9 (inferred)) [LyP-1, tumor homing cyclic nonapeptide]”, the LyP-1 binding result is “strong” in the test on BT549, “not to significantly bind” with C8161 melanoma cells, “strong” in the test with MDA-MB-435 and “not to significantly bind” in the test on HL-60 leukemia cells. Further, in the test with gC1qR/p32, the “gC1qR/p32 bound/pulled down” value was “specifically bound”. Moreover, the “TUNEL-positive lesions in tumors” value in the test on tumors (in vivo peptide treatment) is “induced TUNEL-positive lesions”. In addition, in the test on tumors (systemic administration), the tumor growth result is “inhibits tumor growth”.

(Values after patent US8178104B2, “Methods and compositions for targeting gC1qR/p32” (Sanford-Burnham Medical Research Institute, priority 2006, dated 2012).)
